Among the data in US20260297070A1, “CYCLIC [COMPOUND LEFT OUT] WRN INHIBITORS” (Nimbus Wadjet, Inc., priority 2023, published 2026) are IC50 values, retold here.

T1 sequence (Q14191 with tags, fused parts or gaps L1074F limits assumed): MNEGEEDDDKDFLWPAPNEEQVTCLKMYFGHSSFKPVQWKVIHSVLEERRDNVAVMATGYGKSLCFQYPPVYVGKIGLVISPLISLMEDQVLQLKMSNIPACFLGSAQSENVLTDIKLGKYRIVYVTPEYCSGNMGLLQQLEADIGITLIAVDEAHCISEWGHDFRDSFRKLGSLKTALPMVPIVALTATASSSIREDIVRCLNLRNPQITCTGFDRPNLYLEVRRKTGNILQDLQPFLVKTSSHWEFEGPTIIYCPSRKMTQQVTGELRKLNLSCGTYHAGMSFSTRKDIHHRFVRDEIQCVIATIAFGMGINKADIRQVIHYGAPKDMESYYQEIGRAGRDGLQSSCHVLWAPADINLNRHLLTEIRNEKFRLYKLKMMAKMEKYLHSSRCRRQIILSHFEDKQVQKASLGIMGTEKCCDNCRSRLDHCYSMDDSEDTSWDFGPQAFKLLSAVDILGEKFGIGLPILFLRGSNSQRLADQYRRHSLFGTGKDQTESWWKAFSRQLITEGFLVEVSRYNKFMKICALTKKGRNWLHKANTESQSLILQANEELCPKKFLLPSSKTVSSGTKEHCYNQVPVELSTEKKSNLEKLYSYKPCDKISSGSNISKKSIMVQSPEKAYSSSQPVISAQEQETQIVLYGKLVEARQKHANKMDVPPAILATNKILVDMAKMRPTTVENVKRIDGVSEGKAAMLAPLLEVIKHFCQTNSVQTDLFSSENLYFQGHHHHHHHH

The assay concerns the target T1, human Werner helicase (WRN-BV08, Uniprot Q14191, amino acids 517-1235 with L1074F point mutation) (Homo sapiens, UniProt Q14191, L1074F).
T1 construct: Uniprot Q14191, amino acids 517-1235 with L1074F point mutation; TEV-cleavable 8×His (C, cleaved yes); made in house; host or cells: Sf9 insect cells (baculovirus)
The assay is described as follows: WRN (BV08) ADP-Glo Assay. It is filed as biochemical. The settings on record: 0.15 nM WRN, 5 μM ATP, 0.1 nM DNA duplex, 15 min preincubation, 60 min at 25° C., pH 7.5, 1% DMSO; read-out: ADP-Glo_hWRN_IC50. In short, it runs like this: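 0.15 nM WRN (aa 517-1235, L1074F, Sf9-expressed, tag cleaved) preincubated 15 min at 25 °C with compound, then 5 μM ATP and 0.1 nM DNA duplex added for 60 min. Buffer: 20 mM Bicine pH 7.5, 1 mM MgCl2, 10 mM KCl, 1 mM TCEP; 1% DMSO. ADP-Glo luminescence; IC50 by 4-parameter fit.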
(ADP-Glo first removes unused ATP, then detects ADP through luciferase.)
Turning to `COc1ccc(CN(C(=O)Cc2ccc(-n3cccc3)cc2)C2C=CS(=O)(=O)C2)cc1` (centres unmarked) [I-219, N-(1,1-dioxo-2,3-dihydro-1lambda6-thiophen-3-yl)-N-[(4-methoxyphenyl)methyl]-2-[4-(1H-pyrrol-1-yl)phenyl]acetamide], the IC50 is 5 to 10 µM.
`O=C(Cc1ccc2cc(Br)ccc2c1)N(Cc1ccncc1)C1C=CS(=O)(=O)C1` (centres unmarked) [I-220, 2-(6-bromonaphthalen-2-yl)-N-(1,1-dioxo-2,3-dihydro-1lambda6-thiophen-3-yl)-N-[(pyridin-4-yl)methyl]acetamide]: the IC50 lay in the range of 5 to 10 µM.
Consider `O=C(Cc1ccc(-n2cccc2)cc1)N(Cc1cccc(F)c1F)C1C=CS(=O)(=O)C1` (centres unmarked) [I-221, N-[(2,3-difluorophenyl)methyl]-N-(1,1-dioxo-2,3-dihydro-1lambda6-thiophen-3-yl)-2-[4-(1H-pyrrol-1-yl)phenyl]acetamide], for which the IC50 was 0.5 to 5 µM.
In the case of `O=C(Cc1ccc(-n2cccc2)cc1)N(Cc1ccc2ncccc2c1)C1C=CS(=O)(=O)C1` (centres unmarked) [I-222, N-(1,1-dioxo-2,3-dihydro-1lambda6-thiophen-3-yl)-2-[4-(1H-pyrrol-1-yl)phenyl]-N-[(quinolin-6-yl)methyl]acetamide] it was 5 to 10 µM; in that of `CC(C)(O)c1cc(CN(C(=O)C2Cc3cc(-c4ccc(F)cc4)ccc32)C2C=CS(=O)(=O)C2)ccn1` (centres unmarked) [I-223, N-(1,1-dioxo-2,3-dihydro-1lambda6-thiophen-3-yl)-3-(4-fluorophenyl)-N-{[2-(2-hydroxypropan-2-yl)pyridin-4-yl]methyl}bicyclo[4.2.0]octa-1,3,5-triene-7-carboxamide], 5 to 10 µM.
In the case of `Cc1cccn1-c1ccc(CC(=O)N(Cc2cccnn2)C2C=CS(=O)(=O)C2)c(F)c1` (centres unmarked) [I-224, N-(1,1-dioxo-2,3-dihydro-1lambda6-thiophen-3-yl)-2-[2-fluoro-4-(2-methyl-1H-pyrrol-1-yl)phenyl]-N-[(pyridazin-3-yl)methyl]acetamide] it was 5 to 10 µM; in that of `O=C(Cc1ccc(-n2cccc2)cc1)N(Cc1ccc2c(c1)OCO2)C1C=CS(=O)(=O)C1` (centres unmarked) [I-225, N-[(2H-1,3-benzodioxol-5-yl)methyl]-N-(1,1-dioxo-2,3-dihydro-1lambda6-thiophen-3-yl)-2-[4-(1H-pyrrol-1-yl)phenyl]acetamide], 5 to 10 µM; in that of `Cn1ncc2cc(CN(C(=O)Cc3ccc(-n4cccc4)cc3)C3C=CS(=O)(=O)C3)ccc21` (centres unmarked) [I-226, N-(1,1-dioxo-2,3-dihydro-1lambda6-thiophen-3-yl)-N-[(1-methyl-1H-indazol-5-yl)methyl]-2-[4-(1H-pyrrol-1-yl)phenyl]acetamide], 5 to 10 µM.
The value for `Cc1cc(-c2ccc(F)cc2)ccc1CC(=O)N(Cc1ccncc1)C1C=CS(=O)(=O)C1` (centres unmarked) [I-227, N-(1,1-dioxo-2,3-dihydro-1lambda6-thiophen-3-yl)-2-{4′-fluoro-3-methyl-[1,1′-biphenyl]-4-yl}-N-[(pyridin-4-yl)methyl]acetamide] was 5 to 10 µM; that for `O=C(Cc1ccc(-n2cccc2)cc1)N(Cc1ccncc1Cl)C1C=CS(=O)(=O)C1` (centres unmarked) [I-228, N-[(3-chloropyridin-4-yl)methyl]-N-(1,1-dioxo-2,3-dihydro-1lambda6-thiophen-3-yl)-2-[4-(1H-pyrrol-1-yl)phenyl]acetamide] was 5 to 10 µM; that for `C#CCCCC(=O)N1CCN(C(=O)c2ccc(CN(C(=O)Cc3ccc(-n4cccc4)cc3F)C3C=CS(=O)(=O)C3)cc2)CC1` (centres unmarked) [I-229, N-(1,1-dioxo-2,3-dihydro-1lambda6-thiophen-3-yl)-2-[2-fluoro-4-(1H-pyrrol-1-yl)phenyl]-N-({4-[4-(hex-5-ynoyl)piperazine-1-carbonyl]phenyl}methyl)acetamide] was 5 to 10 µM.
Regarding `CC(C)(O)c1cc(CN(C(=O)Cc2ccc(S(F)(F)(F)(F)F)cc2)[C@H]2C=CS(=O)(=O)C2)ccn1` [I-230, N-[(3S)-1,1-dioxo-2,3-dihydro-1lambda6-thiophen-3-yl]-N-{[2-(2-hydroxypropan-2-yl)pyridin-4-yl]methyl}-2-[4-(pentafluoro-lambda6-sulfanyl)phenyl]acetamide], the IC50 was 0.5 to 5 µM.
Consider `O=C1Nc2cc(C(F)(F)F)ccc2SC1CC(=O)N(Cc1ccncc1)C1C=CS(=O)(=O)C1` (centres unmarked) [I-231, N-(1,1-dioxo-2,3-dihydro-1lambda6-thiophen-3-yl)-2-[3-oxo-6-(trifluoromethyl)-3,4-dihydro-2H-1,4-benzothiazin-2-yl]-N-[(pyridin-4-yl)methyl]acetamide], for which the IC50 lay in the range of 5 to 10 µM.
In the case of `O=C(Cc1ccc(-n2cccc2)cc1)N(Cc1cccc(-n2cccn2)c1)C1C=CS(=O)(=O)C1` (centres unmarked) [I-232, N-(1,1-dioxo-2,3-dihydro-1lambda6-thiophen-3-yl)-N-{[3-(1H-pyrazol-1-yl)phenyl]methyl}-2-[4-(1H-pyrrol-1-yl)phenyl]acetamide] it was 5 to 10 µM.
`O=C(C1Cc2cc(-n3cccc3)ccc21)N(Cc1ccncc1)C1C=CS(=O)(=O)C1` (centres unmarked) [I-233, N-(1,1-dioxido-2,3-dihydrothiophen-3-yl)-N-(pyridin-4-ylmethyl)-3-(1H-pyrrol-1-yl)bicyclo[4.2.0]octa-1(6),2,4-triene-7-carboxamide]: the IC50 lay in the range of 5 to 10 µM.
Regarding `COc1cccc(CN(C(=O)Cc2ccc(-n3cccc3)cc2)C2C=CS(=O)(=O)C2)c1` (centres unmarked) [I-234, N-(1,1-dioxo-2,3-dihydro-1lambda6-thiophen-3-yl)-N-[(3-methoxyphenyl)methyl]-2-[4-(1H-pyrrol-1-yl)phenyl]acetamide], the IC50 fell in the range of 5 to 10 µM.
Consider `O=C(Cc1ccc(C(F)(F)F)c(F)c1)N(Cc1ccncc1)C1C=CS(=O)(=O)C1` (centres unmarked) [I-236, N-(1,1-dioxo-2,3-dihydro-1lambda6-thiophen-3-yl)-2-[3-fluoro-4-(trifluoromethyl)phenyl]-N-[(pyridin-4-yl)methyl]acetamide], for which the IC50 was in the range of 5 to 10 µM.
In the case of `C#CCCCC(=O)N1CCN(c2ccc(CN(C(=O)Cc3ccc(-n4cccc4)cc3)C3C=CS(=O)(=O)C3)cc2)CC1` (centres unmarked) [I-238, N-(1,1-dioxo-2,3-dihydro-1lambda6-thiophen-3-yl)-N-({4-[4-(hex-5-ynoyl)piperazin-1-yl]phenyl}methyl)-2-[4-(1H-pyrrol-1-yl)phenyl]acetamide] it was 0.5 to 5 µM.
Turning to `O=C(Cc1ccc(-n2cccc2)cc1)N(Cc1ccncc1)C1C=CS(=O)(=O)C1` (centres unmarked) [I-239, N-(1,1-dioxo-2,3-dihydro-1lambda6-thiophen-3-yl)-N-[(pyridin-4-yl)methyl]-2-[4-(1H-pyrrol-1-yl)phenyl]acetamide], the IC50 fell in the range of 5 to 10 µM.
As to `COc1cc(CN(C(=O)CCc2c[nH]c3cc(Cl)ccc23)C2C=CS(=O)(=O)C2)ccn1` (centres unmarked) [I-240, 3-(6-chloro-1H-indol-3-yl)-N-(1,1-dioxo-2,3-dihydro-1lambda6-thiophen-3-yl)-N-[(2-methoxypyridin-4-yl)methyl]propanamide], the IC50 was 5 to 10 µM.
For `COc1cc(CN(C(=O)Cc2c(F)cc(-n3cccc3C)cc2F)C2C=CS(=O)(=O)C2)ccn1` (centres unmarked) [I-241, 2-[2,6-difluoro-4-(2-methyl-1H-pyrrol-1-yl)phenyl]-N-(1,1-dioxo-2,3-dihydro-1lambda6-thiophen-3-yl)-N-[(2-methoxypyridin-4-yl)methyl]acetamide], the IC50 lay within 5 to 10 µM.
Regarding `O=C(Cc1ccc(-n2cccc2)cc1)N(Cc1ccc(F)cc1F)C1C=CS(=O)(=O)C1` (centres unmarked) [I-242, N-[(2,4-difluorophenyl)methyl]-N-(1,1-dioxo-2,3-dihydro-1lambda6-thiophen-3-yl)-2-[4-(1H-pyrrol-1-yl)phenyl]acetamide], the IC50 lay in the range of 5 to 10 µM.
For `O=C(Cc1ccc(-n2cccc2)cc1)N(Cc1cccc2cccnc12)C1C=CS(=O)(=O)C1` (centres unmarked) [I-243, N-(1,1-dioxo-2,3-dihydro-1lambda6-thiophen-3-yl)-2-[4-(1H-pyrrol-1-yl)phenyl]-N-[(quinolin-8-yl)methyl]acetamide], the IC50 lay within 5 to 10 µM.
For the molecule `O=C(C1Cc2cc(-n3cccc3)ccc2O1)N(Cc1ccncc1)C1C=CS(=O)(=O)C1` (centres unmarked) [I-244, N-(1,1-dioxo-2,3-dihydro-1lambda6-thiophen-3-yl)-N-[(pyridin-4-yl)methyl]-5-(1H-pyrrol-1-yl)-2,3-dihydro-1-benzofuran-2-carboxamide], the IC50 lay within 5 to 10 µM.
In the case of `CC1CC1c1ccc(CC(=O)N(Cc2ccncc2)C2C=CS(=O)(=O)C2)cc1` (centres unmarked) [I-245, N-(1,1-dioxo-2,3-dihydro-1lambda6-thiophen-3-yl)-2-[4-(2-methylcyclopropyl)phenyl]-N-[(pyridin-4-yl)methyl]acetamide] it was 5 to 10 µM; in that of `COc1cc(CN(C(=O)C(OC)c2ccc(C(F)(F)F)cc2)C2C=CS(=O)(=O)C2)ccn1` (centres unmarked) [I-246, N-(1,1-dioxo-2,3-dihydro-1lambda6-thiophen-3-yl)-2-methoxy-N-[(2-methoxypyridin-4-yl)methyl]-2-[4-(trifluoromethyl)phenyl]acetamide], 5 to 10 µM; in that of `COc1cc(CN(C(=O)Cc2ccc(-c3ccc(F)cc3)cc2)C2C=CS(=O)(=O)C2)on1` (centres unmarked) [I-247, N-(1,1-dioxo-2,3-dihydro-1lambda6-thiophen-3-yl)-2-{4′-fluoro-[1,1′-biphenyl]-4-yl}-N-[(3-methoxy-1,2-oxazol-5-yl)methyl]acetamide], 5 to 10 µM.
Regarding `O=C(Cc1ccc(-c2ccsc2)cc1)N(Cc1ccncc1)C1C=CS(=O)(=O)C1` (centres unmarked) [I-248, N-(1,1-dioxo-2,3-dihydro-1lambda6-thiophen-3-yl)-N-[(pyridin-4-yl)methyl]-2-[4-(thiophen-3-yl)phenyl]acetamide], the IC50 lay within 5 to 10 µM.
In the case of `O=C(C1Cc2cc(-c3ccc(F)cc3)ccc21)N(Cc1ccncc1)C1C=CS(=O)(=O)C1` (centres unmarked) [I-249, N-(1,1-dioxo-2,3-dihydro-1lambda6-thiophen-3-yl)-3-(4-fluorophenyl)-N-[(pyridin-4-yl)methyl]bicyclo[4.2.0]octa-1(6),2,4-triene-7-carboxamide], the IC50 was in the range of 5 to 10 µM.
